# Test results published in patent publication US7589219B2, “2,5-bis-diamine-[1,4]benzoquinonic derivatives, useful for the treatment of alzheimer's disease, method for preparing them and intermediates of said method” (priority 2002, dated 2009).
# “Also recorded” adds a separate entry of the source. Read-outs that look alike come from different tables or passages of the source.
# Legend:
# [1] = system: anti-NGF transgenic mice (AD11); test: Immunohistochemistry and neurostereology in anti-NGF transgenic mice (AD11); format: in vivo, mouse; conditions: for extracellular deposition of APP: 6 month-old AD11 mice (FIG. 19); for cholinergic deficit in the basal forebrain (number of cholinergic neurons): AD11 mice from 6 months of age for 15 days (FIG. 16); for number of cells accumulating β-amyloid protein in the hippocampus: treatment starting at 6 months of age (FIG. 20)
# [2] = molecular target: aggregation of Aβ (1-40) induced by AChE (recombining human, EC 3.1.1.7) (Homo sapiens, UniProt P22303); test: biochemical; format: biochemical
# [3] = molecular target: BuChE (from human serum, EC 3.1.1.8) (Homo sapiens, UniProt P06276); test: biochemical
# [4] = molecular target: recombining human AChE (HuAChE, EC 3.1.1.7) (Homo sapiens, UniProt P22303); format: biochemical; conditions: mean of two independent measurements in triplicate
# [5] = molecular target: AChE, from human erythrocytes EC 3.1.1.7 (Homo sapiens, UniProt P22303); format: biochemical
# [6] = Total antioxidant status (Randox kit, modified), capture of oxygen radicals, ABTS colorimetric method; format: biochemical; conditions: for % inhibition (antioxidant activity): absorbance 600 nm, 3 min, pH 7.4, 37° C.
# [7] = system: non transgenic mice treated with scopolamine; test: Object recognition test, amnesia induced by scopolamine in non transgenic mice; format: in vivo, mouse; conditions: per os 15 mg/kg 20 min before scopolamine 0.5 mg/kg s.c. (FIG. 14)
# AD11 mice = test: Object recognition test in AD11 mice; format: in vivo, mouse
# [8] = molecular target: AChE (from human erythrocytes, amphiphilic form, EC 3.1.1.7) (Homo sapiens, UniProt P22303); test: biochemical; conditions: for Selectivity IC50(BuChE)/IC50 (AChE): ratio of the Table I IC50 values
# [9] = AD11 mice, 15 days starting at 6 months of age (FIG. 18)
# [10] = BuChE from human serum, Ellman's method, Table I, read-out: IC50 (BuChE)
# [11] = BuChE from human serum, Example 50 table, mean of two independent measurements in triplicate, read-out: IC50 (BuChE)
# [12] = AChE from human erythrocytes, Ellman's method, Table I, read-out: IC50(AChE)
# [13] = AD11 mice aged 15 months, per os 7 mg/kg/day for 1 month, versus placebo (FIG. 11)
# [14] = AD11 mice, daily from 1.5 months until 2 months of age, per os or intraperitoneal, comparison of AChE inhibitors (FIG. 15)
# recombining human AChE (HuAChE, EC 3.1.1.7), sequence (P22303 32-614): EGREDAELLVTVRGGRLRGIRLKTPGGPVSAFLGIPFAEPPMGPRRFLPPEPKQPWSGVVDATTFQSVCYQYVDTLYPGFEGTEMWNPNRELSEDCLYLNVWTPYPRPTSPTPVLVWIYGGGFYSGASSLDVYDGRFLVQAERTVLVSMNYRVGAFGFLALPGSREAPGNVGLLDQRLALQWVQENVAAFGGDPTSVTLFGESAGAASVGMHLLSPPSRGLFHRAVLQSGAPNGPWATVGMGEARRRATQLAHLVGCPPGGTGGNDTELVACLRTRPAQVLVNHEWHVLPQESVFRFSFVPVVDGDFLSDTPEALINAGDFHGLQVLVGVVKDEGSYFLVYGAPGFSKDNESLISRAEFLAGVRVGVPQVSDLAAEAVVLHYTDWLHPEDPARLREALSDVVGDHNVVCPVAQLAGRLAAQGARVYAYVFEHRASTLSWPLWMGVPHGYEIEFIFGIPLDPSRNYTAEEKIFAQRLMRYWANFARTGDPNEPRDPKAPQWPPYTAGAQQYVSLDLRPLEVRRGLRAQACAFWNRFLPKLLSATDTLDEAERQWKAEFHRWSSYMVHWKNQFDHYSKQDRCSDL
# BuChE (from human serum, EC 3.1.1.8), sequence (P06276 29-602): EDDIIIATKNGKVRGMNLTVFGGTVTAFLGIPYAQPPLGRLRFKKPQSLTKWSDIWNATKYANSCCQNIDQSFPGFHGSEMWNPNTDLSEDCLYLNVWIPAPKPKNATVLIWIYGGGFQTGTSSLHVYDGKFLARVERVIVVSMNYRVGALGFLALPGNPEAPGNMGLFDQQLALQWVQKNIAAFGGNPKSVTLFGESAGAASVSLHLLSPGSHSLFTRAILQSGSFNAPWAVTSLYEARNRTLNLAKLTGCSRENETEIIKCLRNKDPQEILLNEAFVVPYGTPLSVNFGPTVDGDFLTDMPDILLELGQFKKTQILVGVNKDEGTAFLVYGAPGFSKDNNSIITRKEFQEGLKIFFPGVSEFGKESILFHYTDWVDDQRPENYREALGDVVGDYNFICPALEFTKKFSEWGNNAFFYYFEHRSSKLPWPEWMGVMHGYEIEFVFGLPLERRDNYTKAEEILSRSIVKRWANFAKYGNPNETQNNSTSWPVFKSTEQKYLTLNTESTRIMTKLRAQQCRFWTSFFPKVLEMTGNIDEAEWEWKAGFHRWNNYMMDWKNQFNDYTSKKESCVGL
# AChE (from human erythrocytes, amphiphilic form, EC 3.1.1.7), sequence (P22303 32-617 isoform P22303-2 limits assumed): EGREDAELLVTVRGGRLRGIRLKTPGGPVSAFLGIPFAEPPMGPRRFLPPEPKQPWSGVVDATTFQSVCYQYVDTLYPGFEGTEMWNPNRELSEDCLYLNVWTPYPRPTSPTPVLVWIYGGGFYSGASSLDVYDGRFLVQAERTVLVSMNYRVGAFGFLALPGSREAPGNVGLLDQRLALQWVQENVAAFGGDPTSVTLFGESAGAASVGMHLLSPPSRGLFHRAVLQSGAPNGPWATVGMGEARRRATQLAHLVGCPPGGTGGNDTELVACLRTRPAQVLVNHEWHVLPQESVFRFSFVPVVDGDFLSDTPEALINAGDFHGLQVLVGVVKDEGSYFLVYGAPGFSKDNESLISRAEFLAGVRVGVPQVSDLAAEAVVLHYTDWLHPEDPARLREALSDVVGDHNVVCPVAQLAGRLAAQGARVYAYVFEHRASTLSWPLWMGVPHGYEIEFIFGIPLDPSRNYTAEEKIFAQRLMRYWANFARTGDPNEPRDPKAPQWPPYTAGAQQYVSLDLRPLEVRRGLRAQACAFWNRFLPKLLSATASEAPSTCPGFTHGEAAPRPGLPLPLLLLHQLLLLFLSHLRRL
# aggregation of Aβ (1-40) induced by AChE (recombining human, EC 3.1.1.7), sequence (P22303 32-614): as the sequence (P22303 32-614) above
# AChE, from human erythrocytes EC 3.1.1.7, sequence (P22303 32-617 isoform P22303-2 limits assumed): as the sequence (P22303 32-617 isoform P22303-2 limits assumed) above
compound,measurement,setting,value
"COc1ccccc1CN(C)CCCCCC(=O)N(C)CCCCCCCCN(C)C(=O)CCCCCN(C)Cc1ccccc1OC [Caproctamine, reference compound]",extracellular deposition of APP,[1],ineffective
same,cholinergic deficit in the basal forebrain (number of cholinergic neurons),[1],had no effect on the number of cholinergic neurons
same,number of neurons labelled with antibodies against phospho-tau (entorhinal cortex),[1]; [9],ineffective
same,number of cells accumulating β-amyloid protein in the hippocampus,[1]; AD11 mice,ineffective
"CCN(CCCCCCNC1=CC(=O)C(NCCCCCCN(CC)Cc2ccccc2OC)=CC1=O)Cc1ccccc1OC [Compound XVI, 2,5-Bis-{6-[ethyl-(2-methoxy-benzyl)-amino]-hexylamino}-[1,4]benzoquinone]",IC50,"[2]; read-out: concentration able to reduce the signal of fluorescence by 50% (IC50, AChE-induced Aβ aggregation), Aβ 230 μM, AChE 2.3 μM, thioflavine T fluorescence",28300 ± 300 nM
same,IC50,[3]; [10],1440 ± 100 nM
same,IC50,[3]; [11],1440 ± 100 nM
same,IC50,"[3]; approximate, corresponds to the Table I IC50, read-out: pIC50(BChE) (converted)",~1450 nM
same,IC50,[4],1.55 ± 0.11 nM
same,type of inhibition,[5]; Lineweaver-Burk analysis (FIG. 1),competitive inhibitor of a mixed type
same,Ki,"[5]; acetylthiocholine 111-550 μM, Lineweaver-Burk, intercept of the gradient plot",2.6 nM
same,% inhibition (antioxidant activity),"[6]; concentration 170 μM, with human serum albumin 25 μM",44.1 ± 3.7%
same,"antioxidant power, times lower than Trolox",[6]; oxidated quinonic form tested,about 6 times
same,"amnesia induced by scopolamine, object recognition test",[7],did not show any signs of amnesia
same,"behavioural deficit, object recognition test (discrimination index)","AD11 mice; AD11 mice at 6 months, 15 mg/kg/day per os for 15 days (FIGS. 12, 21), 15 mg/kg/day",improvement of the deficit; also recorded: marked amelioration of the behavioural deficit
same,"behavioural deficit, object recognition test (discrimination index)","AD11 mice; AD11 mice at 12 months, 15 mg/kg/day per os for 15 days (FIG. 13)",improvement of the deficit
same,IC50,[8]; [12],2.39 ± 0.14 nM
same,Selectivity IC50(BuChE)/IC50 (AChE),[8],602
same,extracellular deposition of APP,[1],reduced the extracellular deposition of APP
same,number of cholinergic neurons in the basal forebrain,"[1]; AD11 mice aged 15 months, per os 7 mg/kg/day for 1 month (FIG. 9)",improvement in the number of cholinergic neurons
same,intracellular accumulation of hyperphosphorylated tau,"[1]; AD11 mice aged 15 months, per os 7 mg/kg/day for 1 month, versus placebo (FIG. 10)",decreased
same,number of cells associated with plaques,[1]; [13],lower than that in placebo-treated mice
same,number of β-amyloid plaques,[1]; [13],decrease in the number of β-amyloid plaques
same,cholinergic deficit in the basal forebrain (number of cholinergic neurons),[1],able to rescue the cholinergic deficit
same,APP deposition in the cerebral vessels,"[1]; AD11 mice of 2 months, 7 mg/kg intraperitoneal daily for 15 days (FIG. 7)",able to reduce markedly the cerebrovascular deposition of APP
same,tau hyperphosphorylation in the cortex,"[1]; AD11 mice of 2 months, 7 mg/kg intraperitoneal daily for 15 days (FIG. 8)",partly prevented
same,cholinergic neurons in the basal nucleus of Meynert,"[1]; AD11 mice, 7 mg/kg intraperitoneal daily for 15 days from age 1.5 to 2 months (FIG. 6)",efficacious in preventing the loss of cholinergic neurons
same,ChAT positive cholinergic neurons in the basal forebrain,"[1]; AD11 mice, 7 mg/kg intraperitoneal daily for 15 days from age 1.5 to 2 months (FIGS. 4, 5)",able to prevent the cholinergic deficit in the basal forebrain
same,number of neurons labelled with antibodies against phospho-tau (entorhinal cortex),"[1]; AD11 mice, 15 days starting at 1.5 months of age (FIG. 17)",reduced the number of neurons labelled with antibodies against phospho-tau
same,number of neurons labelled with antibodies against phospho-tau (entorhinal cortex),[1]; [9],reduced the number of neurons labelled with antibodies against phospho-tau
same,number of cholinergic neurons in the basal forebrain,[1]; [14],prevented the decrease of the number of cholinergic neurons
same,number of cells accumulating β-amyloid protein in the hippocampus,[1]; AD11 mice,able to reduce the number of cells accumulating β-amyloid protein
"CCN(CCCCCCCNC1=CC(=O)C(NCCCCCCCN(CC)Cc2ccccc2OC)=CC1=O)Cc1ccccc1OC [IL, 2,5-bis-{7-[ethyl-(2-methoxy-benzyl)-amino]-heptylamino}-[1,4]benzoquinone]",IC50,[3]; [11],1250 ± 250 nM
same,IC50,[4],7.79 ± 0.37 nM
"COc1ccccc1CNCCCCCCNC1=CC(=O)C(NCCCCCCNCc2ccccc2OC)=CC1=O [LI, 2,5-bis-[6-(2-methoxy-benzylamino)-hexylamino]-[1,4]-benzoquinone]",IC50,[3]; [11],3230 ± 150 nM
same,IC50,[4],123 ± 20 nM
"COc1ccccc1CN(C)CCCCCCNC1=CC(=O)C(NCCCCCCN(C)Cc2ccccc2OC)=CC1=O [LIV, 2,5-bis-{6-[(2-methoxy-benzyl)-methylamino]-hexylamino}-[1,4]-benzoquinone]",IC50,[3]; [11],5110 ± 410 nM
same,IC50,[4],77.8 ± 4.3 nM
"CCN(CCCCCCNC1=C(C)C(=O)C(NCCCCCCN(CC)Cc2ccccc2OC)=C(C)C1=O)Cc1ccccc1OC [LV, 2,5-bis-{6-[ethyl-(2-methoxy-benzyl)-amino]-hexylamino}-3,6-dimethyl-[1,4]-benzoquinone]",IC50,[3]; [11],462 ± 2 nM
same,IC50,[4],9.5 ± 0.23 nM
"Nc1c2c(nc3ccccc13)CCCC2 [Tacrine, reference compound]",number of cholinergic neurons in the basal forebrain,[1]; [14],aggravated the cholinergic deficit
"Cc1c(C)c2c(c(C)c1O)CCC(C)(C(=O)O)O2 (centres unmarked) [Trolox, 6-hydroxy-2,5,7,8-tetramethylchroman-2-carboxylic acid, reference compound]",% inhibition (antioxidant activity),[6]; concentration 27 μM,57.6 ± 0.9%
"CCN(CCCNC1=CC(=O)C(NCCCN(CC)Cc2ccccc2OC)=CC1=O)Cc1ccccc1OC [XII, 2,5-Bis-{3-[ethyl-(2-methoxy-benzyl)-amino]-propylamino}-[1,4]benzoquinone]",inhibition at 100 µM,[2]; concentration of 100 μM,~90%
same,IC50,[3]; [10],4490 ± 340 nM
same,IC50,[4],2.25 ± 0.21 nM
same,IC50,[8]; [12],3.19 ± 0.15 nM
same,IC50,"[8]; approximate, corresponds to the Table I IC50, read-out: pIC50(AChE) (converted)",~3.24 nM
same,Selectivity IC50(BuChE)/IC50 (AChE),[8],1407
"CCN(CCCCCCNC1=CC(=O)C(NCCCCCCN(CC)Cc2ccco2)=CC1=O)Cc1ccco1 [XLI, 2,5-bis-[6-(ethyl-furan-2-ilmethyl-amino)-hexylamino]-[1,4]benzoquinone]",IC50,[3]; [11],3510 ± 180 nM
same,IC50,[4],144 ± 3 nM
"CCN(CCNC1=CC(=O)C(NCCN(CC)Cc2ccccc2OC)=CC1=O)Cc1ccccc1OC [XLV, 2,5-bis-{2-[ethyl-(2-methoxy-benzyl)-amino]-ethylamino}-[1,4]benzoquinone]",IC50,[3]; [11],16800 ± 1100 nM
same,IC50,[4],61.5 ± 1.3 nM
"CCN(CCCCCCNC1=CC(=O)C(NCCCCCCN(CC)Cc2ccccc2)=CC1=O)Cc1ccccc1 [XVII, 2,5-Bis-[6-(benzyl-ethyl-amino)-hexylamino]-[1,4]benzoquinone]",IC50,[3]; [11],645 ± 33 nM
same,IC50,[4],73.3 ± 3.2 nM
"CCN(CCCCCCNC1=CC(=O)C(NCCCCCCN(CC)Cc2ccccc2Cl)=CC1=O)Cc1ccccc1Cl [XVIII, 2,5-Bis-{6-[ethyl-(2-chloro-benzyl)-amino]-hexylamino}-[1,4]benzoquinone]",IC50,[3]; [11],45100 ± 1000 nM
same,IC50,[4],593 ± 51 nM
"CCN(CCCCCCNC1=CC(=O)C(NCCCCCCN(CC)Cc2ccccc2[N+](=O)[O-])=CC1=O)Cc1ccccc1[N+](=O)[O-] [XXIX, 2,5-bis-{6-[ethyl-(2-nitro-benzyl)-amino]-hexylamino}-[1,4]benzoquinone]",IC50,[3],36500 ± 8800 nM
same,IC50,[4],2310 ± 130 nM
"CCN(CCCCCCNC1=CC(=O)C(NCCCCCCN(CC)Cc2cccc(OC)c2)=CC1=O)Cc1cccc(OC)c1 [XXXIII, 2,5-bis-{6-[ethyl-(3-methoxy-benzyl)-amino]-hexylamino}-[1,4]benzoquinone]",IC50,[3]; [11],2170 ± 70 nM
same,IC50,[4],13.8 ± 1.7 nM
"CCN(CCCCCCNC1=CC(=O)C(NCCCCCCN(CC)Cc2ccc(OC)cc2)=CC1=O)Cc1ccc(OC)cc1 [XXXVII, 2,5-bis-{6-[ethyl-(4-methoxy-benzyl)-amino]-hexylamino}-[1,4]benzoquinone]",IC50,[3]; [11],2420 ± 940 nM
same,IC50,[4],51.1 ± 1 nM
